# Laboratory results from patent US6723747B2, “Substituted 6H-DiBenzo[c,h]chromenes as estrogenic agents” (Wyeth, priority 2001, dated 2004).
# Assays:
# [1] = test system: progesterone receptor mRNA in the preoptic area of the rat brain; test: Progesterone receptor mRNA regulation test procedure; type: in vivo; settings: 10 mg/kg, vehicle 189.2 ± 27.2
# Excerpt: This test procedure can be used to evaluate the estrogenic or antiestrogenic activity of compounds from this invention [Shughrue, et al., Endocrinology 138: 5476-5484 (1997)].
# [2] = test system: Lewis rats; test: Lewis rat adjuvant-induced arthritis, inhibition test procedure; type: in vivo; settings: 10 mg/kg sc daily from Day 1
# [3] = test system: 129 SvE mice; test: Mouse uterotrophic test procedure (Procedure 2); type: in vivo; settings: 50 mg/kg subcutaneously, 4 days, immature mice; first experiment, vehicle 9.5 ± 0.3
# Experimental: Procedure 2: Sexually immature (18 days of age) 129 SvE mice were obtained from Taconic and provided unrestricted access to a casein-based diet (Purina Mills 5K96C) and water. On day 22, 23, 24 and 25 the mice were dosed subcutaneously with compound or vehicle (corn oil). There were six mice/group and they were euthanized approximately 6 hours after the last injection by CO2 asphyxiation and pneumothorax. Uteri were removed and weighed after trimming associated fat and expressing any internal fluid. The following results (Table (2)) were obtained for representative compounds from the invention.
# [4] = test system: HLA-B27 rats; test: HLA rat test procedure for inflammatory bowel disease; type: in vivo; settings: for stool character, group's average score: 10 mg/kg oral daily, 3=diarrhea, 2=soft, 1=normal stool
# Experimental: Representative compounds of the invention were evaluated in the HLA rat standard pharmacological test procedure which emulates inflammatory bowel disease in humans. The following briefly describes the procedure used and results obtained. Male HLA-B27 rats were obtained from Taconic and provided unrestricted access to food (PMI Lab diet 5001) and water. Rats were dosed once daily (orally) with either vehicle (2% tween-80/0.5% methylcellulose) or Example 1d (10 mg/kg) for 26 days. Stool quality was observed daily and graded according to the following scale: Diarrhea=3; soft stool=2; normal stool=1. […] At the end of the study, serum was collected and stored at −70° C. A section of colon was prepared for histological analysis and an additional segment was analyzed for myeloperoxidase activity.
# Histological analysis. Colonic tissue was immersed in 10% neutral buffered formalin. Each specimen of colon was separated into four samples for evaluation. The formalin-fixed tissues were processed in a Tissue Tek vacuum infiltration processor (Miles, Inc; West Haven, Conn.) for paraffin embedding. The samples were sectioned at 5 μm and then stained with hematoxylin and eosin (H&E) for blinded histologic evaluations using a scale modified after Boughton-Smith. After the scores were completed the samples were unblinded, and data were tabulated and analyzed by ANOVA linear modeling with multiple mean comparisons. Sections of colonic tissue were evaluated for several disease indicators and given relative scores.
# [5] = test system: Lewis rats; test: Lewis rat adjuvant-induced arthritis, treatment test procedure; type: in vivo; settings: for joint inflammation score (maximal score per day 12): 10 mg/kg sc daily, treatment begun Day 8 after adjuvant
# [6] = biological target: T1, human ERβ (Homo sapiens, UniProt Q92731); test: Radioligand binding competition with [3H]-17β-estradiol, ERβ; settings: human ERβ ligand binding domain, read-out: ER-β IC50
# T1 construct: M214-Q530 of human ERβ; Flag (C); made in house; host or cells: E. coli BL21(DE3), clarified lysate
# [7] = test system: casein kinase II mRNA; test: Mammary end bud test procedure (rat mammotrophic assay); type: in vivo; settings: 20 mg/kg sc + progesterone 30 mg/kg; ovariectomized rats; vehicle 1.61 ± 0.36
# Experimental: Estrogens are required for full ductal elongation and branching of the mammary ducts, and the subsequent development of lobulo-alveolar end buds under the influence of progesterone. In this test procedure, the mammotrophic activity of selected compounds of the invention was evaluated according to the following standard pharmacological test procedure. Twenty-eight day old Sprague-Dawley rats (Taconic Farms, Germantown, N.Y.) were ovariectomized and rested for nine days. […] For the final three days, rats were also dosed subcutaneously with progesterone (30 mg/kg). On the seventh day, rats were euthanised and a mammary fat pad excised. This fat pad was analyzed for casein kinase II mRNA as a marker of end bud proliferation. Casein kinase II mRNA was anlayzed by real-time RT-PCR. Briefly, RNA was isolated following Trizol (GibcoBRL, Grand Island, N.Y.) according to the manufacture's directions, Samples were treated with DNAse I using DNA-free kit (Ambion), and casein kinase II mRNA levels were measured by real-time RT-PCR using the Taqman Gold procedure (PE Applied Biosystems). […] Casein kinase II mRNA levels were normalized to 18s ribosomal RNA contained within each sample reaction using primers and probe supplied by PE Applied Biosystems. The following results were obtained for an example of the invention (Table (4)).
# [8] = tarsal joints, 10 mg/kg, vehicle 2.58 ± 0.38
# T1 sequence (Q92731 214-530): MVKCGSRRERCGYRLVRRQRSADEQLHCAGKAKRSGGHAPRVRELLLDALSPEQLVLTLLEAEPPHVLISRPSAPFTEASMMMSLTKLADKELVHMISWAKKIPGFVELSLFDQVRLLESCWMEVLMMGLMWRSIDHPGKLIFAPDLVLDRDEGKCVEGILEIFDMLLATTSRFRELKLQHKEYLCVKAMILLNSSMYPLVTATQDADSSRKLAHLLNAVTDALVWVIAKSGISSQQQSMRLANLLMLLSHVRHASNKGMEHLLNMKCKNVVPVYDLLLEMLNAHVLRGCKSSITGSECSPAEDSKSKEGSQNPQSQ
compound,measurement,setting,value
"N#Cc1cc2c(c3ccc(O)cc13)OCc1cc(O)ccc1-2 [Example 1d, 2,8-Dihydroxy-6H-dibenzo[c,h]chromene-12-carbonitrile]",Progesterone receptor mRNA (mean ± stdev),[1],403.9 ± 19.1 arbitrary units
same,joint inflammation score (maximal score per day 12),"[2]; day 1, vehicle 0.00",0.00
same,joint inflammation score (maximal score per day 12),"[2]; day 2, vehicle 0.00",0.00
same,joint inflammation score (maximal score per day 12),"[2]; day 3, vehicle 4.50",2.66
same,joint inflammation score (maximal score per day 12),"[2]; day 4, vehicle 5.50",1.83
same,joint inflammation score (maximal score per day 12),"[2]; day 5, vehicle 9.33",2.66
same,joint inflammation score (maximal score per day 12),"[2]; day 6, vehicle 10.50",2.16
same,joint inflammation score (maximal score per day 12),"[2]; day 7, vehicle 10.60",2.00
same,joint inflammation score (maximal score per day 12),"[2]; day 8, vehicle 11.00",1.66
same,joint inflammation score (maximal score per day 12),"[2]; day 9, vehicle 11.50",2.00
same,joint inflammation score (maximal score per day 12),"[2]; day 10, vehicle 11.33",2.00
same,joint inflammation score (maximal score per day 12),"[2]; day 11, vehicle 10.83",1.66
same,joint inflammation score (maximal score per day 12),"[2]; day 12, vehicle 10.83",1.66
same,joint inflammation score (maximal score per day 12),"[2]; day 13, vehicle 11.00",2.16
same,joint inflammation score (maximal score per day 12),"[2]; day 14, vehicle 11.00",2.00
same,joint inflammation score (maximal score per day 12),"[2]; day 15, vehicle 11.00",2.00
same,joint inflammation score (maximal score per day 12),"[2]; day 16, vehicle 11.00",1.00
same,joint inflammation score (maximal score per day 12),"[2]; day 17, vehicle 10.50",1.33
same,mean uterine weight ± SEM,[3],9.8 ± 0.5 mg
same,stool quality,[4]; 10 mg/kg orally once daily for 26 days,stool quality improved
same,"stool character, group's average score","[4]; day 1, vehicle 1",1
same,"stool character, group's average score","[4]; day 2, vehicle 1",1
same,"stool character, group's average score","[4]; day 3, vehicle 1",1
same,"stool character, group's average score","[4]; day 4, vehicle 1.25",1
same,"stool character, group's average score","[4]; day 5, vehicle 2.5",1.5
same,"stool character, group's average score","[4]; day 6, vehicle 2.75",1.25
same,"stool character, group's average score","[4]; day 7, vehicle 2.75",1.25
same,"stool character, group's average score","[4]; day 8, vehicle 2.75",1
same,"stool character, group's average score","[4]; day 9, vehicle 3",1.25
same,"stool character, group's average score","[4]; day 10, vehicle 3",1
same,"stool character, group's average score","[4]; day 11, vehicle 2.75",1.25
same,"stool character, group's average score","[4]; day 12, vehicle 2.75",1.25
same,"stool character, group's average score","[4]; day 13, vehicle 2.75",1.25
same,"stool character, group's average score","[4]; day 14, vehicle 2.75",1.25
same,"stool character, group's average score","[4]; day 15, vehicle 2.75",1
same,"stool character, group's average score","[4]; day 16, vehicle 3",1
same,"stool character, group's average score","[4]; day 17, vehicle 2.75",1
same,"stool character, group's average score","[4]; day 18, vehicle 2.75",1
same,"stool character, group's average score","[4]; day 19, vehicle 2.75",1
same,"stool character, group's average score","[4]; day 22, vehicle 3",1
same,"stool character, group's average score","[4]; day 23, vehicle 3",1
same,"stool character, group's average score","[4]; day 24, vehicle 3",1
same,"stool character, group's average score","[4]; day 25, vehicle 3",1
same,"stool character, group's average score","[4]; day 26, vehicle 3",1
same,measurements of tissue injury in colon,"[4]; histological analysis, 10 mg/kg orally",effective in reducing several measurements of tissue injury
same,"Fibrosis (0-2), colon histological score, mean ± SD","[4]; treated orally for 4 weeks, 10 mg/kg, vehicle 1.06 ± 0.32",0.13 ± 0.14
same,"Ulceration (0-2), colon histological score, mean ± SD","[4]; treated orally for 4 weeks, 10 mg/kg, vehicle 1.44 ± 0.66",0.19 ± 0.13
same,"Lesion depth (0-2), colon histological score, mean ± SD","[4]; treated orally for 4 weeks, 10 mg/kg, vehicle 1.56 ± 0.63",0.19 ± 0.13
same,"Inflammation (0-3), colon histological score, mean ± SD","[4]; treated orally for 4 weeks, 10 mg/kg, vehicle 2.88 ± 0.14",1.38 ± 0.43
same,"Total score, colon histological score, mean ± SD","[4]; treated orally for 4 weeks, 10 mg/kg, vehicle 6.94 ± 1.51",1.88 ± 0.14
same,joint inflammation score (maximal score per day 12),"[5]; day 1, vehicle 10.83",11.33
same,joint inflammation score (maximal score per day 12),"[5]; day 2, vehicle 11.00",11.15
same,joint inflammation score (maximal score per day 12),"[5]; day 3, vehicle 10.83",11.33
same,joint inflammation score (maximal score per day 12),"[5]; day 4, vehicle 11.33",9.83
same,joint inflammation score (maximal score per day 12),"[5]; day 5, vehicle 11.50",8.83
same,joint inflammation score (maximal score per day 12),"[5]; day 6, vehicle 11.50",7.83
same,joint inflammation score (maximal score per day 12),"[5]; day 7, vehicle 11.50",6.16
same,joint inflammation score (maximal score per day 12),"[5]; day 8, vehicle 11.50",5.00
same,joint inflammation score (maximal score per day 12),"[5]; day 9, vehicle 11.00",4.33
same,joint inflammation score (maximal score per day 12),"[5]; day 10, vehicle 11.00",2.66
same,joint inflammation score (maximal score per day 12),"[5]; day 11, vehicle 10.66",1.83
same,joint inflammation score (maximal score per day 12),"[5]; day 12, vehicle 10.66",1.83
same,joint inflammation score (maximal score per day 12),"[5]; day 13, vehicle 10.50",2.66
same,joint inflammation score (maximal score per day 12),"[5]; day 14, vehicle 9.83",2.66
same,joint inflammation score (maximal score per day 12),"[5]; day 15, vehicle 8.10",2.00
same,joint inflammation score (maximal score per day 12),"[5]; day 16, vehicle 7.35",2.00
same,joint inflammation score (maximal score per day 12),"[5]; day 17, vehicle 6.50",1.50
same,"Tidemark Integrity (0-1), Mankin score","[5]; tarsal joints, 10 mg/kg, vehicle 0",0
same,"Pannus (0-1), synovitis histological score, mean ± SD","[5]; tarsal joints, 10 mg/kg, vehicle 1.00 ± 0.89",0.08 ± 0.20
same,"Fibroplasia (0-3), synovitis histological score, mean ± SD","[5]; tarsal joints, 10 mg/kg, vehicle 1.75 ± 0.42",0.75 ± 0.42
same,"Saffranin-O/Fast Green Staining (0-4), Mankin score, mean ± SD","[5]; tarsal joints, 10 mg/kg, vehicle 2.50 ± 0.32",1.25 ± 0.61
same,"Cartilage Cells (0-3), Mankin score, mean ± SD",[5]; [8],0.58 ± 0.38
same,"Synovial Structure (0-3), synovitis histological score, mean ± SD",[5]; [8],1.75 ± 0.52
same,"Cartilage Structure (0-6), Mankin score, mean ± SD","[5]; tarsal joints, 10 mg/kg, vehicle 2.83 ± 0.26",1.67 ± 0.41
same,"Inflammatory Cells (0-3), synovitis histological score, mean ± SD","[5]; tarsal joints, 10 mg/kg, vehicle 2.92 ± 0.20",1.33 ± 0.41
same,"Total Mankin Score (0-14), mean ± SD","[5]; tarsal joints, 10 mg/kg, vehicle 7.92 ± 0.74",3.50 ± 1.27
same,"Total Synovitis Score (0-10), mean ± SD","[5]; tarsal joints, 10 mg/kg, vehicle 8.25 ± 1.57",3.92 ± 1.36
same,IC50,[6],1.8 nM
same,Casein kinase II mRNA/18S rRNA (mean ± SEM),[7],1.4 ± 0.7
